Assay results as given in PubChem BioAssay AID1918999 (Molecular Pharmacology Branch, DTP, NCI, 2023).
pIC50: −log10 of the molar value.

Test system: 556581-035-R-J1-PDC complex spheroid growth
Assay: Anticancer human tumor 556581-035-R-J1-PDC patient-derived ovarian carcinoma cell line growth inhibition [AhR]
Settings: for pIC50: curve of first compound; for viability, T/C: stronger effect = lower value
Method in brief: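 Agents were dosed in half-log steps down from roughly clinical Cmax, or from 10 microM where Cmax was unknown, alone and with AhR antagonists. Read-out: percent test/control growth of tumor spheroids containing HUVEC and MSC stromal cells.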
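Wherever viability, T/C is given: compound exposure lasted 7 days; 100% = DMSO vehicle control growth.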

Q: With `CCc1c2c(nc3ccc(O)cc13)-c1cc3c(c(=O)n1C2)COC(=O)[C@]3(O)CC` + Cc1cncc(-c2nc(NCCc3c[nH]c4ccccc34)c3ncn(C(C)C)c3n2)c1 as the compound, how does the pIC50 (second compound 0.1 µM) read?
A: Its pIC50 is 7.83.

Q: What about the pIC50 (second compound 0.316 µM) of the same compound?
A: The pIC50 was 7.81.

Q: What about the pIC50 (second compound 1 µM) of the same compound?
A: The pIC50 was 7.86.

Q: And the pIC50 (second compound 3.16 µM)?
A: The pIC50 was 7.73.

Q: What about the pIC50 (second compound 10 µM) of the same compound?
A: Its pIC50 is 7.77.

Q: What about the viability, T/C (second compound 0.1 µM, first compound 0.000949 µM) of the same compound?
A: Its viability, T/C is 91.8%.

Q: What about the viability, T/C (second compound 0.1 µM, first compound 0.003 µM) of the same compound?
A: The viability, T/C was 86.4%.

Q: And the viability, T/C (second compound 0.1 µM, first compound 0.00949 µM)?
A: Its viability, T/C is 56.4%.

Q: What about the viability, T/C (second compound 0.1 µM, first compound 0.03 µM) of the same compound?
A: Its viability, T/C is 36%.

Q: And the viability, T/C (second compound 0.1 µM, first compound 0.0949 µM)?
A: Its viability, T/C is 17.5%.

Q: And the viability, T/C (second compound 0.1 µM, first compound 0.3 µM)?
A: The viability, T/C was 10.5%.

Q: What about the viability, T/C (second compound 0.316 µM, first compound 0.000949 µM) of the same compound?
A: The viability, T/C was 97.3%.

Q: What about the viability, T/C (second compound 0.316 µM, first compound 0.003 µM) of the same compound?
A: The viability, T/C was 89.2%.

Q: And the viability, T/C (second compound 0.316 µM, first compound 0.00949 µM)?
A: Its viability, T/C is 55.7%.

Q: And the viability, T/C (second compound 0.316 µM, first compound 0.03 µM)?
A: Its viability, T/C is 40%.

Q: And the viability, T/C (second compound 0.316 µM, first compound 0.0949 µM)?
A: The viability, T/C was 14.4%.

Q: And the viability, T/C (second compound 0.316 µM, first compound 0.3 µM)?
A: The viability, T/C was 10.8%.

Q: And the viability, T/C (second compound 1 µM, first compound 0.000949 µM)?
A: The viability, T/C was 101%.

Q: And the viability, T/C (second compound 1 µM, first compound 0.003 µM)?
A: The viability, T/C was 90.2%.

Q: And the viability, T/C (second compound 1 µM, first compound 0.00949 µM)?
A: Its viability, T/C is 60.6%.

Q: And the viability, T/C (second compound 1 µM, first compound 0.03 µM)?
A: The viability, T/C was 27.1%.

Q: What about the viability, T/C (second compound 1 µM, first compound 0.0949 µM) of the same compound?
A: Its viability, T/C is 16.2%.

Q: What about the viability, T/C (second compound 1 µM, first compound 0.3 µM) of the same compound?
A: Its viability, T/C is 9.89%.

Q: What about the viability, T/C (second compound 3.16 µM, first compound 0.000949 µM) of the same compound?
A: Its viability, T/C is 84.2%.

Q: What about the viability, T/C (second compound 3.16 µM, first compound 0.003 µM) of the same compound?
A: The viability, T/C was 90.8%.

Q: And the viability, T/C (second compound 3.16 µM, first compound 0.00949 µM)?
A: Its viability, T/C is 65.4%.

Q: And the viability, T/C (second compound 3.16 µM, first compound 0.03 µM)?
A: Its viability, T/C is 38.8%.

Q: And the viability, T/C (second compound 3.16 µM, first compound 0.0949 µM)?
A: Its viability, T/C is 14.6%.

Q: What about the viability, T/C (second compound 3.16 µM, first compound 0.3 µM) of the same compound?
A: Its viability, T/C is 13.8%.

Q: And the viability, T/C (second compound 10 µM, first compound 0.000949 µM)?
A: The viability, T/C was 81.5%.

Q: What about the viability, T/C (second compound 10 µM, first compound 0.003 µM) of the same compound?
A: Its viability, T/C is 73.8%.

Q: And the viability, T/C (second compound 10 µM, first compound 0.00949 µM)?
A: The viability, T/C was 63%.

Q: What about the viability, T/C (second compound 10 µM, first compound 0.03 µM) of the same compound?
A: The viability, T/C was 37.7%.

Q: And the viability, T/C (second compound 10 µM, first compound 0.0949 µM)?
A: The viability, T/C was 17.2%.

Q: What about the viability, T/C (second compound 10 µM, first compound 0.3 µM) of the same compound?
A: The viability, T/C was 9.08%.

Q: With `COc1cc(Nc2ncc3c(n2)-c2ccc(Cl)cc2C(c2c(F)cccc2OC)=NC3)ccc1C(=O)O` + Cc1cncc(-c2nc(NCCc3c[nH]c4ccccc34)c3ncn(C(C)C)c3n2)c1 as the compound, how does the pIC50 (second compound 0.1 µM) read?
A: Its pIC50 is under 5.00.

Q: What about the pIC50 (second compound 0.316 µM) of the same compound?
A: The pIC50 was under 5.00.

Q: What about the pIC50 (second compound 1 µM) of the same compound?
A: Its pIC50 is under 5.00.

Q: And the pIC50 (second compound 3.16 µM)?
A: The pIC50 was under 5.00.

Q: What about the pIC50 (second compound 10 µM) of the same compound?
A: The pIC50 was under 5.00.

Q: What about the viability, T/C (second compound 0.1 µM, first compound 0.0316 µM) of the same compound?
A: The viability, T/C was 97.2%.

Q: And the viability, T/C (second compound 0.1 µM, first compound 0.1 µM)?
A: The viability, T/C was 83.4%.

Q: What about the viability, T/C (second compound 0.1 µM, first compound 0.316 µM) of the same compound?
A: Its viability, T/C is 79.5%.

Q: And the viability, T/C (second compound 0.1 µM, first compound 1 µM)?
A: The viability, T/C was 71.2%.

Q: What about the viability, T/C (second compound 0.1 µM, first compound 3.16 µM) of the same compound?
A: Its viability, T/C is 71.1%.

Q: And the viability, T/C (second compound 0.1 µM, first compound 10 µM)?
A: Its viability, T/C is 58.4%.

Q: What about the viability, T/C (second compound 0.316 µM, first compound 0.0316 µM) of the same compound?
A: Its viability, T/C is 91.5%.

Q: What about the viability, T/C (second compound 0.316 µM, first compound 0.1 µM) of the same compound?
A: The viability, T/C was 87.9%.

Q: And the viability, T/C (second compound 0.316 µM, first compound 0.316 µM)?
A: Its viability, T/C is 72.5%.

Q: And the viability, T/C (second compound 0.316 µM, first compound 1 µM)?
A: Its viability, T/C is 76.8%.

Q: And the viability, T/C (second compound 0.316 µM, first compound 3.16 µM)?
A: Its viability, T/C is 62.1%.

Q: And the viability, T/C (second compound 0.316 µM, first compound 10 µM)?
A: The viability, T/C was 62.3%.

Q: What about the viability, T/C (second compound 1 µM, first compound 0.0316 µM) of the same compound?
A: Its viability, T/C is 84.9%.

Q: And the viability, T/C (second compound 1 µM, first compound 0.1 µM)?
A: Its viability, T/C is 81.9%.

Q: What about the viability, T/C (second compound 1 µM, first compound 0.316 µM) of the same compound?
A: Its viability, T/C is 78.7%.

Q: What about the viability, T/C (second compound 1 µM, first compound 1 µM) of the same compound?
A: Its viability, T/C is 72.6%.

Q: And the viability, T/C (second compound 1 µM, first compound 3.16 µM)?
A: Its viability, T/C is 67.8%.

Q: And the viability, T/C (second compound 1 µM, first compound 10 µM)?
A: The viability, T/C was 65.9%.

Q: And the viability, T/C (second compound 3.16 µM, first compound 0.0316 µM)?
A: The viability, T/C was 86.2%.

Q: What about the viability, T/C (second compound 3.16 µM, first compound 0.1 µM) of the same compound?
A: The viability, T/C was 76.9%.

Q: What about the viability, T/C (second compound 3.16 µM, first compound 0.316 µM) of the same compound?
A: Its viability, T/C is 77.2%.

Q: And the viability, T/C (second compound 3.16 µM, first compound 1 µM)?
A: The viability, T/C was 73.2%.

Q: What about the viability, T/C (second compound 3.16 µM, first compound 3.16 µM) of the same compound?
A: The viability, T/C was 72.8%.

Q: What about the viability, T/C (second compound 3.16 µM, first compound 10 µM) of the same compound?
A: Its viability, T/C is 65.9%.

Q: What about the viability, T/C (second compound 10 µM, first compound 0.0316 µM) of the same compound?
A: The viability, T/C was 89.4%.

Q: And the viability, T/C (second compound 10 µM, first compound 0.1 µM)?
A: Its viability, T/C is 74.1%.

Q: What about the viability, T/C (second compound 10 µM, first compound 0.316 µM) of the same compound?
A: Its viability, T/C is 78.1%.

Q: What about the viability, T/C (second compound 10 µM, first compound 1 µM) of the same compound?
A: Its viability, T/C is 70.7%.

Q: And the viability, T/C (second compound 10 µM, first compound 3.16 µM)?
A: Its viability, T/C is 71%.

Q: And the viability, T/C (second compound 10 µM, first compound 10 µM)?
A: Its viability, T/C is 75.2%.
